Results published in publication PMC10786919, “Design-rules for stapled peptides with in vivo activity and their application to Mdm2/X antagonists” (Nature Communications, 2024).
pEC50: −log10 of the molar value. In brackets after ≈: the same amount, converted by molar mass. Positions of bridges follow the written chain, without caps; N, C: chain ends. Non-standard residues stand in square brackets, D forms with d. Residues, ends and D or L forms follow the SMILES beside them. Lys(N3) = [N-]=[N+]=NCCCC[C@H](N)C(=O)O; R8 = C=CCCCCCC[C@@](C)(N)C(=O)O; Cba = N[C@@H](CC1CCC1)C(=O)O; S5 = C=CCCC[C@](C)(N)C(=O)O; βAla = NCCC(=O)O

How the values were obtained:
[1] = Experimental LogD (partition coefficient); conditions: not stated, Partition Coeff LogD
EPSA = assay type: physicochemical; conditions: EPSA
[2] = Lactate dehydrogenase (LDH) release assay; assay type: cell-based; conditions: LDH: Cytotoxicity assay: EC50
How it was run: (§1)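 HCT116 cells stably carrying a p53-responsive β-lactamase reporter were seeded at 8000 cells per well with a final DMSO level of 0.5%. Membrane integrity was assessed by lactate dehydrogenase release using a homogeneous fluorometric kit. Values are geometric means of at least three biological replicates.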

[3] = Solubility assay (kinetic solubility, PBS pH 7); assay type: physicochemical; conditions: pH 7, aqueous buffer, kinetic from dmso stock, pH 7, PBS; read-out: Solubility
How it was run: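 Next, measure peak areas of sample and standard. Finally, multiply their ratio by the standard concentration to obtain solubility (µM).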

in vitro = conditions: Nanoclick permeability assay EC50
How it was run: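 Azido-peptide permeability was read as loss of NanoBRET signal (donor 450 nm, acceptor 610 nm) after adding NanoBret618-azide at 10 μM final.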

HCT116 cells = assay: Lactate dehydrogenase (LDH) release assay; assay type: cell-based
How it was run: as §1

| Structure (SMILES) | logD [1] | EPSA (EPSA) | pEC50 [2] | solubility kinetic [3] | cell entry EC50 (in vitro) | LDH: Cytotoxicity assay: % Effect (HCT116 cells) |
| --- | --- | --- | --- | --- | --- | --- |
| CC(=O)N[C@@H](CCCCN=[N+]=[N-])C(=O)NCCC(=O)N[C@@H](CC(C)C)C(=O)N[C@H](C(=O)N[C@@H](Cc1ccccc1)C(=O)N[C@]1(C)CCCCC#CC#CCCC[C@@](C)(C(=O)N[C@@H](CO)C(=O)N[C@@H](C)C(=O)N[C@@H](C)C(N)=O)NC(=O)[C@H](CC2CCC2)NC(=O)[C@H](CCC(N)=O)NC(=O)[C@H](C)NC(=O)[C@H](Cc2c[nH]c3ccccc23)NC(=O)[C@H](Cc2ccc(O)cc2)NC(=O)[C@H](CCC(=O)O)NC1=O)[C@@H](C)O [MP-806] | 2.44 | 203 A^2 | < 4.29 | 34 µM (≈ 66.8 µg/mL) | 5.58 µM |  |
| CC(=O)N[C@@H](CCCCN=[N+]=[N-])C(=O)NCCC(=O)N[C@@H](CC(C)C)C(=O)N[C@H](C(=O)N[C@@H](CCC(=O)O)C(=O)N[C@]1(C)CCCCCCC=CCCC[C@@](C)(C(=O)N[C@@H](CO)C(=O)N[C@@H](C)C(=O)N[C@@H](C)C(N)=O)NC(=O)[C@H](CC2CCC2)NC(=O)[C@H](CCC(N)=O)NC(=O)[C@H](C)NC(=O)[C@H](Cc2c[nH]c3ccccc23)NC(=O)[C@H](Cc2ccc(O)cc2)NC(=O)[C@H](Cc2ccccc2)NC1=O)[C@@H](C)O [MP-123] (Ac-[Lys(N3)][βAla]LTE[R8]FYWAQ[Cba][S5]SAA-NH2; staple 6-13) | 2.66 | 197 A^2 | < 4.29 | 2 µM (≈ 3.94 µg/mL) | 0.682 µM |  |
| CC(=O)N[C@@H](CCCNC(=N)N)C(=O)N[C@@H](CCCNC(=N)N)C(=O)NCCC(=O)N[C@@H](CC(C)C)C(=O)N[C@H](C(=O)N[C@@H](Cc1ccccc1)C(=O)N[C@]1(C)CCCCCCC=CCCC[C@@](C)(C(=O)N[C@@H](CO)C(=O)N[C@@H](C)C(=O)N[C@@H](C)C(N)=O)NC(=O)[C@H](CC2CCC2)NC(=O)[C@H](CCC(N)=O)NC(=O)[C@H](C)NC(=O)[C@H](Cc2c[nH]c3ccccc23)NC(=O)[C@H](Cc2ccc(O)cc2)NC(=O)[C@H](CCC(=O)O)NC1=O)[C@@H](C)O [MP-4002] | 2.47 | 212 A^2 | 4.42 | 11 µM (≈ 23.4 µg/mL) |  | 50.55% |
| CC(=O)N[C@@H](CCCNC(=N)N)C(=O)NCCCCCC(=O)N[C@@H](CC(C)C)C(=O)N[C@H](C(=O)N[C@@H](Cc1ccccc1)C(=O)N[C@]1(C)CCCCCCC=CCCC[C@@](C)(C(=O)N[C@@H](CO)C(=O)N[C@@H](C)C(=O)N[C@@H](C)C(N)=O)NC(=O)[C@H](CC2CCC2)NC(=O)[C@H](CCC(N)=O)NC(=O)[C@H](C)NC(=O)[C@H](Cc2c[nH]c3ccccc23)NC(=O)[C@H](Cc2ccc(O)cc2)NC(=O)[C@H](CCC(=O)O)NC1=O)[C@@H](C)O [MP-4001] | 2.64 | 207 A^2 | < 4.30 | 4 µM (≈ 8.06 µg/mL) |  | -1.283% |
| CC(=O)N[C@@H](CCCNC(=N)N)C(=O)N[C@@H](CCCNC(=N)N)C(=O)NCCC(=O)N[C@@H](CCCCN=[N+]=[N-])C(=O)N[C@@H](CC(C)C)C(=O)N[C@H](C(=O)N[C@@H](Cc1ccccc1)C(=O)N[C@]1(C)CCCCCCC=CCCC[C@@](C)(C(=O)N[C@@H](CO)C(=O)N[C@@H](C)C(=O)N[C@@H](C)C(N)=O)NC(=O)[C@H](CC2CCC2)NC(=O)[C@H](CCC(N)=O)NC(=O)[C@H](C)NC(=O)[C@H](Cc2c[nH]c3ccccc23)NC(=O)[C@H](Cc2ccc(O)cc2)NC(=O)[C@H](CCC(=O)O)NC1=O)[C@@H](C)O [MP-006] | 2.72 | 226 A^2 | 4.58 | 2 µM (≈ 4.57 µg/mL) |  | 47.04% |
| CC(=O)N[C@@H](CCCNC(=N)N)C(=O)N[C@@H](CCCNC(=N)N)C(=O)NCCCCCC(=O)N[C@@H](CC(C)C)C(=O)N[C@H](C(=O)N[C@@H](Cc1ccccc1)C(=O)N[C@]1(C)CCCCCCC=CCCC[C@@](C)(C(=O)N[C@@H](CO)C(=O)N[C@@H](C)C(=O)N[C@@H](C)C(N)=O)NC(=O)[C@H](CC2CCC2)NC(=O)[C@H](CCC(N)=O)NC(=O)[C@H](C)NC(=O)[C@H](Cc2c[nH]c3ccccc23)NC(=O)[C@H](Cc2ccc(O)cc2)NC(=O)[C@H](CCC(=O)O)NC1=O)[C@@H](C)O [MP-003] | 2.51 | 207 A^2 | 4.51 | 6 µM (≈ 13 µg/mL) |  | 46.5% |
